Activity calls are given as the source filed them. No cut-off for these calls is given here. *1 amine or outer side, *2 acyl side, *3 side chain or, on linkers, in order; H or OH if unused. Where a SMILES comes first, the peptide text is derived from it. The star is where a group is joined. AMC = Cc1cc(=O)oc2cc(N*)ccc12; Suc = O=C(CCC(=O)[*:2])[*:1]; Decanoyl = CCCCCCCCCC(=O)*
Assays:
[1] = target: T1, NAD-dependent protein deacetylase sirtuin-7 (Homo sapiens) (UniProt Q9NRC8); assay: Substrate activity at human N-terminal His-tagged SIRT7 (68 to 354 residues) expressed in Escherichia coli at 0.5 uM measured after 2 hrs in presence of NAD+ and trypsin by fluorescence assay
T1 sequence (whole entry): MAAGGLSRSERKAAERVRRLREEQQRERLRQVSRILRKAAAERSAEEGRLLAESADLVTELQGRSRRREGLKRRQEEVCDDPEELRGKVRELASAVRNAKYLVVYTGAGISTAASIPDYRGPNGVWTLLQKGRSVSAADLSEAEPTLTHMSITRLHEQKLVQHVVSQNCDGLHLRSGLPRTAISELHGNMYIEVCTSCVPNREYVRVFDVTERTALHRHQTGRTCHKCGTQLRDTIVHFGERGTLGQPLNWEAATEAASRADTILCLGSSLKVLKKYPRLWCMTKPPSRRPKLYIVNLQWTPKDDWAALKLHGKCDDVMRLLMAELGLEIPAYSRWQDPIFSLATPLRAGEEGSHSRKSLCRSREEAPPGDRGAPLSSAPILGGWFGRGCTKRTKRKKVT

[2] = target: T1, NAD-dependent protein deacetylase sirtuin-7 (Homo sapiens); assay: Substrate activity at human N-terminal His-tagged SIRT7 (68 to 354 residues) expressed in Escherichia coli at 50 uM measured after 2 hrs in presence of NAD+ and trypsin by fluorescence assay
[3] = target: NAD-dependent protein deacylase sirtuin-6 (Homo sapiens) (UniProt Q8N6T7); assay: Substrate activity at human N-terminal His-tagged SIRT6 (1 to 355 residues) expressed in Escherichia coli at 5 uM measured after 2 hrs in presence of NAD+ and trypsin by fluorescence assay
Sequence of NAD-dependent protein deacylase sirtuin-6 (Homo sapiens) (Q8N6T7 whole entry, the tested form may be a part): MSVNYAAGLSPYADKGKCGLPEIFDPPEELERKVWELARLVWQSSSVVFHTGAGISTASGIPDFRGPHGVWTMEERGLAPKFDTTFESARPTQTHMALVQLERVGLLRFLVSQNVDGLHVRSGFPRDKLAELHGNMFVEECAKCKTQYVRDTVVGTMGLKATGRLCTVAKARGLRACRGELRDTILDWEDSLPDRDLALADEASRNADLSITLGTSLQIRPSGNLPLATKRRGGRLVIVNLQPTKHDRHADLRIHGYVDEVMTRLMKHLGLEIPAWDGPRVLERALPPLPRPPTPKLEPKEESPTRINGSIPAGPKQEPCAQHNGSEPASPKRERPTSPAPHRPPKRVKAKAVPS

[4] = target: T2, NAD-dependent protein deacetylase sirtuin-3, mitochondrial (Homo sapiens) (UniProt Q9NTG7); assay: Substrate activity at human N-terminal His-tagged SIRT3 (122 to 391 residues) expressed in Escherichia coli at 0.5 uM measured after 2 hrs in presence of NAD+ and trypsin by fluorescence assay
T2 sequence (whole entry): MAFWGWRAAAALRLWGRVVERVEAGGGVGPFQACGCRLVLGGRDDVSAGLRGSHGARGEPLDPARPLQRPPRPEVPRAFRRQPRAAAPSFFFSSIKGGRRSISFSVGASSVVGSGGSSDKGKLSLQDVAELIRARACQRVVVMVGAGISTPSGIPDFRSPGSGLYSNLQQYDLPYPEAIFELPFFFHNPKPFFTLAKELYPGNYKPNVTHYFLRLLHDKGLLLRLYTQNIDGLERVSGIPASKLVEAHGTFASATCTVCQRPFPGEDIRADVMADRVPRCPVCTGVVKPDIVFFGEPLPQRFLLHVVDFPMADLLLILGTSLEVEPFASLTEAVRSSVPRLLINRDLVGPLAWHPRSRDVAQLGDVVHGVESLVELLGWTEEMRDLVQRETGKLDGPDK

[5] = target: T3, NAD-dependent protein deacetylase sirtuin-1 (Homo sapiens) (UniProt Q96EB6); assay: Substrate activity at human N-terminal His-tagged SIRT1 (183 to 664 residues) expressed in Escherichia coli at 0.5 uM measured after 2 hrs in presence of NAD+ and trypsin by fluorescence assay
T3 sequence (whole entry): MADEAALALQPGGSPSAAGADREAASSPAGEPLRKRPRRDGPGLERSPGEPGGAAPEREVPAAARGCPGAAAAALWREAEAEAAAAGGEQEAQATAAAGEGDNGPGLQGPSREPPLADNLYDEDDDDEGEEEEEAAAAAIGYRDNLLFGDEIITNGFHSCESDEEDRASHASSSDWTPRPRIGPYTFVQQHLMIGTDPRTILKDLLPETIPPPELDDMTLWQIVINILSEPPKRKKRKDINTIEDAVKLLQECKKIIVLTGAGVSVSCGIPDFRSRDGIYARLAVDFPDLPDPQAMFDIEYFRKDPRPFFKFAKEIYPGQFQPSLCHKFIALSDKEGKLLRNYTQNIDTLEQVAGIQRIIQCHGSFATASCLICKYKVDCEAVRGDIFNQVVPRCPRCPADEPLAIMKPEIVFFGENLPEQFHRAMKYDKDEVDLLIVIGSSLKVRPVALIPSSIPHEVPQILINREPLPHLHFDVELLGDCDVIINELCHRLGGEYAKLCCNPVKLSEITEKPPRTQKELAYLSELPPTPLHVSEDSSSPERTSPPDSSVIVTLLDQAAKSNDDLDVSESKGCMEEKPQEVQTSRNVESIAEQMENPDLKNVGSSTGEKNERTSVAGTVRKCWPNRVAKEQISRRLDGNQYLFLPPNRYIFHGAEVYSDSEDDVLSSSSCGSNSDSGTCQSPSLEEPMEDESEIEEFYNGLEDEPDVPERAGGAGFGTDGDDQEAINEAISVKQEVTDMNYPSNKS

[6] = target: NAD-dependent protein deacylase sirtuin-5, mitochondrial (Homo sapiens) (UniProt Q9NXA8); assay: Substrate activity at human N-terminal His-tagged SIRT5 (34 to 302 residues) expressed in Escherichia coli at 0.5 uM measured after 2 hrs in presence of NAD+ and trypsin by fluorescence assay
Sequence of NAD-dependent protein deacylase sirtuin-5, mitochondrial (Homo sapiens) (Q9NXA8 37-310 limits assumed): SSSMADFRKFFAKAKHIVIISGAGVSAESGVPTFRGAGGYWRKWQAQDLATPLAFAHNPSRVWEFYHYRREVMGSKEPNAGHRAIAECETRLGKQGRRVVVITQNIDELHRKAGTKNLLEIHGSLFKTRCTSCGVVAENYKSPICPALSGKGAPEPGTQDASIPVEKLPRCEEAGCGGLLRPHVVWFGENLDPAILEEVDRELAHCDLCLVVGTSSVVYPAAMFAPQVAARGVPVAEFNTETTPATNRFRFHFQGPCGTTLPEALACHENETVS

[7] = target: T4, NAD-dependent protein deacetylase sirtuin-2 (Homo sapiens) (UniProt Q8IXJ6); assay: Substrate activity at human N-terminal His-tagged SIRT2 (56 to 356 residues) expressed in Escherichia coli at 0.5 uM measured after 2 hrs in presence of NAD+ and trypsin by fluorescence assay
T4 sequence (whole entry): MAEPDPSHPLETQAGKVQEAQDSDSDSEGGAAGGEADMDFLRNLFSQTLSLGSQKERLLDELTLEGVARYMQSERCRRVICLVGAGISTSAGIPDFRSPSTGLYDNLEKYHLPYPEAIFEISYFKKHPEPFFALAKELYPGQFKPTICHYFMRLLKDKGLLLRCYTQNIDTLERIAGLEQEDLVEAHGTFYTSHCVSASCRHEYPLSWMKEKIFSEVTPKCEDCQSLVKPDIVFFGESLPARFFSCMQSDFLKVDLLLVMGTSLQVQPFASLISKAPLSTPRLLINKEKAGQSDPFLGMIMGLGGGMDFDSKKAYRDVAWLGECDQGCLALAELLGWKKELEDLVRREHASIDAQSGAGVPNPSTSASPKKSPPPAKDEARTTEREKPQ

[8] = target: NAD-dependent protein deacylase sirtuin-5, mitochondrial (Homo sapiens) (UniProt Q9NXA8); assay: Substrate activity at human N-terminal His-tagged SIRT5 (34 to 302 residues) expressed in Escherichia coli at 5 uM measured after 2 hrs in presence of NAD+ and trypsin by fluorescence assay
[9] = target: T3, NAD-dependent protein deacetylase sirtuin-1 (Homo sapiens); assay: Substrate activity at human N-terminal His-tagged SIRT1 (183 to 664 residues) expressed in Escherichia coli at 5 uM measured after 2 hrs in presence of NAD+ and trypsin by fluorescence assay
[10] = target: T4, NAD-dependent protein deacetylase sirtuin-2 (Homo sapiens); assay: Substrate activity at human N-terminal His-tagged SIRT2 (56 to 356 residues) expressed in Escherichia coli at 5 uM measured after 2 hrs in presence of NAD+ and trypsin by fluorescence assay
[11] = target: T2, NAD-dependent protein deacetylase sirtuin-3, mitochondrial (Homo sapiens); assay: Substrate activity at human N-terminal His-tagged SIRT3 (122 to 391 residues) expressed in Escherichia coli at 50 uM measured after 2 hrs in presence of NAD+ and trypsin by fluorescence assay
[12] = target: NAD-dependent protein deacylase sirtuin-6 (Homo sapiens) (UniProt Q8N6T7); assay: Substrate activity at human N-terminal His-tagged SIRT6 (1 to 355 residues) expressed in Escherichia coli at 50 uM measured after 2 hrs in presence of NAD+ and trypsin by fluorescence assay
[13] = target: T4, NAD-dependent protein deacetylase sirtuin-2 (Homo sapiens); assay: Substrate activity at human N-terminal His-tagged SIRT2 (56 to 356 residues) expressed in Escherichia coli at 50 uM measured after 2 hrs in presence of NAD+ and trypsin by fluorescence assay
[14] = target: T1, NAD-dependent protein deacetylase sirtuin-7 (Homo sapiens); assay: Substrate activity at human N-terminal His-tagged SIRT7 (68 to 354 residues) expressed in Escherichia coli at 5 uM measured after 2 hrs in presence of NAD+ and trypsin by fluorescence assay
[15] = target: NAD-dependent protein deacylase sirtuin-5, mitochondrial (Homo sapiens) (UniProt Q9NXA8); assay: Substrate activity at human N-terminal His-tagged SIRT5 (34 to 302 residues) expressed in Escherichia coli at 5 uM measured after 1 hr in presence of NAD+ and trypsin by fluorescence assay
[16] = target: T3, NAD-dependent protein deacetylase sirtuin-1 (Homo sapiens); assay: Substrate activity at human N-terminal His-tagged SIRT1 (183 to 664 residues) expressed in Escherichia coli at 50 uM measured after 2 hrs in presence of NAD+ and trypsin by fluorescence assay
[17] = target: T2, NAD-dependent protein deacetylase sirtuin-3, mitochondrial (Homo sapiens); assay: Substrate activity at human N-terminal His-tagged SIRT3 (122 to 391 residues) expressed in Escherichia coli at 5 uM measured after 2 hrs in presence of NAD+ and trypsin by fluorescence assay
[18] = target: NAD-dependent protein deacylase sirtuin-5, mitochondrial (Homo sapiens) (UniProt Q9NXA8); assay: Substrate activity at human N-terminal His-tagged SIRT5 (34 to 302 residues) expressed in Escherichia coli at 50 uM measured after 2 hrs in presence of NAD+ and trypsin by fluorescence assay
[19] = target: NAD-dependent protein deacylase sirtuin-6 (Homo sapiens) (UniProt Q8N6T7); assay: Substrate activity at human N-terminal His-tagged SIRT6 (1 to 355 residues) expressed in Escherichia coli at 0.5 uM measured after 2 hrs in presence of NAD+ and trypsin by fluorescence assay

Row | Compound | Activity [1] [RFU] | Activity [2] [RFU] | Activity [3] [RFU] | Activity [4] [RFU] | Activity [5] [RFU] | Activity [6] [RFU] | Activity [7] [RFU] | Activity [8] [RFU] | Activity [9] [RFU] | Activity [10] [RFU] | Activity [11] [RFU] | Activity [12] [RFU] | Activity [13] [RFU] | Activity [14] [RFU] | Activity [15] | Activity [16] [RFU] | Activity [17] [RFU] | Activity [18] [RFU] | Activity [19] [RFU]
1 | CC(=O)N[C@@H](Cc1cnc[nH]1)C(=O)N[C@@H](Cc1ccccc1)C(=O)N[C@@H](CO)C(=O)N[C@@H](CCCCNC(=O)CCC(=O)O)C(=O)Nc1ccc2c(C)cc(=O)oc2c1 (Ac-HFSK(Suc)-{AMC}) | 0.28 | 0.51 | 0.32 | 0.49 | 0.16 | 1.15 | 0.16 | 8.98 | 0.36 | 0.21 | 0.89 | 0.51 | 1.03 | 1.36 | Active | 0.69 | 0.55 | 0.71 | 0.41
2 | CC(=O)NCCCC[C@H](NC(=O)[C@H](CCCCN)NC(=O)[C@H](Cc1cnc[nH]1)NC(=O)[C@H](CCCNC(=N)N)NC(C)=O)C(=O)Nc1ccc2c(C)cc(=O)oc2c1 (Ac-RHKK(Ac)-{AMC}) | 0.39 | 0.43 | 0.38 | 0.28 | 0.37 | 0.37 | 0.37 | 0.3 | 1.13 | 0.73 | 1.61 | 0.43 | 2.64 | 0.33 |  | 5.22 | 0.38 | 0.61 | 0.5
3 | CC(=O)NCCCC[C@H](NC(=O)[C@H](CCCNC(=N)N)NC(=O)[C@H](C)NC(=O)[C@@H](NC(C)=O)[C@@H](C)O)C(=O)Nc1ccc2c(C)cc(=O)oc2c1 (Ac-TARK(Ac)-{AMC}) | 0.39 | 0.43 | 0.34 | 0.31 | 0.2 | 0.26 | 0.2 | 0.27 | 0.33 | 0.22 | 0.88 | 0.43 | 0.48 | 0.28 |  | 0.97 | 0.38 | 0.7 | 0.35
4 | CCCCCCCCCC(=O)NCCCC[C@H](NC(=O)[C@H](CCCNC(=N)N)NC(=O)[C@H](C)NC(=O)[C@@H](NC(C)=O)[C@@H](C)O)C(=O)Nc1ccc2c(C)cc(=O)oc2c1 (Ac-TARK(Decanoyl)-{AMC}) | 0.35 | 0.79 | 0.38 | 0.26 | 0.25 | 0.26 | 0.25 | 0.28 | 0.46 | 0.65 | 1.08 | 0.79 | 1.94 | 0.35 |  | 1.43 | 0.4 | 1.38 | 0.48

Second part, the compound after the results:

Row | Activity [1] [RFU] | Activity [2] [RFU] | Activity [3] [RFU] | Activity [4] [RFU] | Activity [5] [RFU] | Activity [6] [RFU] | Activity [7] [RFU] | Activity [8] [RFU] | Activity [9] [RFU] | Activity [10] [RFU] | Activity [11] [RFU] | Activity [12] [RFU] | Activity [13] [RFU] | Activity [14] [RFU] | Activity [15] | Activity [16] [RFU] | Activity [17] [RFU] | Activity [18] [RFU] | Activity [19] [RFU] | Compound
5 | 0.27 | 0.71 | 0.32 | 2.66 | 0.66 | 0.22 | 0.66 | 0.27 | 18.3 | 4.96 | 28.2 | 0.71 | 32.5 | 3.2 |  | 24.1 | 14.2 | 0.98 | 0.45 | CC[C@H](C)[C@H](NC(=O)[C@H](CC(C)C)NC(=O)[C@H](CCCNC(=N)N)NC(C)=O)C(=O)N[C@@H](CCCCNC(C)=O)C(=O)Nc1ccc2c(C)cc(=O)oc2c1 (Ac-RLIK(Ac)-{AMC})
6 | 0.31 | 0.97 | 0.39 | 0.54 | 0.52 | 0.24 | 0.52 | 0.31 | 6.39 | 3.84 | 9.82 | 0.97 | 25.2 | 1.09 |  | 33 | 2.28 | 1.29 | 0.5 | CC(=O)NCCCC[C@H](NC(=O)[C@H](CC(C)C)NC(=O)[C@H](CCCCN)NC(=O)[C@H](Cc1ccc(O)cc1)NC(C)=O)C(=O)Nc1ccc2c(C)cc(=O)oc2c1 (Ac-YKLK(Ac)-{AMC})

— ChEMBL document CHEMBL4680222, “Sensitive fluorogenic substrates for sirtuin deacylase inhibitor discovery” (Eur J Med Chem, 2020)
